# Values quoted from earlier work as cited in US9937141B2, “Carcinoma diagnosis and treatment, based on ODC1 genotype” (The Arizona Board of Regents on Behalf of the University of …, priority 2009, dated 2018).
# How the values were obtained:
# tumor putrescine = settings: DFMO infusion, without suppressing peripheral platelet counts
# [1] = human, in vivo
# prostoglandin E2 (PGE2) = settings: 300 mg/day, one month
smiles,measurement,setting,value
"NCCCC(N)(C(=O)O)C(F)F (racemic) [DFMO, 2-(difluoromethyl)-dl-ornithine]",decrease in tumor putrescine levels,tumor putrescine,90%
CC1=C(CC(=O)O)c2cc(F)ccc2/C1=C\c1ccc(S(C)(=O)=O)cc1 [Sulindac sulfone],COX-inhibitory activity,COX,lacks COX-inhibitory activity
"CC1=C(CC(=O)O)c2cc(F)ccc2/C1=C\c1ccc([S+](C)[O-])cc1 (stereo not shown) [Sulindac, (Z)-5-fluoro-2-methyl-1-((4 (methylsulfin-yl)phenyl)methylene) 1H-indene-3-acetic acid]","Skin rash and pruritus, patients affected",[1],5%
same,"mild gastrointestinal effects, patients affected",[1],~20%
same,time to peak plasma levels,fasting patients,about 2 hours
same,drug absorbed after oral administration,oral,about 90%
CC(C)Cc1ccc(C(C)C(=O)O)cc1 (stereo not shown) [ibuprofen],PGE2 levels in flat mucosa,prostoglandin E2 (PGE2),significant decrease
